From patent US12252457B2, “Compositions and methods for reducing tactile dysfunction, anxiety, and social impairment” (President and Fellows of Harvard College, priority 2018, dated 2025)
Structures can show the parent of a compound that is named as a salt.

Legend:
[1] = target: T1, Transporter, GABA (Rattus norvegicus, UniProt P23978); test: GABA transporter radioligand binding assay (Cat # 226400)
T1 construct: tissue Eurofins Panlabs 226400; host or cells: rat brain membranes (own knowledge of the vendor's assay and of the cited Shank et al. 1990 method)
Method: The activity of compound Compound 5 was evaluated in Radioligand Binding assays. Methods employed herein have been adapted from the scientific literature to maximize reliability and reproducibility. Reference standards were run as an integral part of each assay to ensure the validity of the results obtained. Where presented, IC50 values were determined by a non-linear, least squares regression analysis using MathIQ™ (ID Business Solutions Ltd., UK). Where inhibition constants (K) are presented, the Ki values were calculated using the equation of Cheng and Prusoff (Cheng, Y., Prusoff, W. H., Biochem. Pharmacol. 22:3099-3108, 1973) using the observed IC50 of the tested compound, the concentration of radioligand employed in the assay, and the historical values for the KD of the ligand (obtained experimentally at Eurofins Panlabs, Inc.). Where presented, the Hill coefficient (nH), defining the slope of the competitive binding curve, was calculated using MathIQ™. […] Where IC50, Ki and/or nH data are presented without Standard Error of the Mean (SEM), data are insufficient to be quantitative.
Biochemical assay results are presented as the percent inhibition of specific binding or activity. All other results are expressed in terms of the quantitation method of that assay. For primary assays, only the lowest concentration with a significant response, judged by the criteria of the assay, is shown in this summary. […] Unless otherwise requested, primary screening in duplicate with quantitative data (e.g., IC50±SEM, Ki ±SEM and nH) are shown where applicable for individual requested assays.
J Neurochem. 54:2007-2015.

[2] = system: low-threshold mechanoreceptor neurons (LTMRs); test: In vivo multiunit electrode recordings in the L4 DRG; design: species or system mouse
Description: FIGS. 20A-20O show isoguvacine attenuates tactile sensitivity through reduced excitability of peripheral, low-threshold mechanosensory neurons. FIG. 20A: Diagram for in vivo dorsal root ganglion (DRG) multi-unit electrode recordings, showing tetrode placement into the left L4 ganglia. FIG. 20B: Activity traces of two putative neurons (units) in response to a brush stimulus. FIG. 20C: Activity traces of two putative neurons (units) in response to a light air puff stimulus (1 PSI). FIGS. 20D-20G: Example unit identified during the spike sorting process. Average waveform at each electrode site (FIG. 20D, FIG. 20E), and inter-spike interval (FIG. 20F, FIG. 20G). FIG. 20H: Representative activity raster plots for multiple putative LTMRs in multiple mice over the duration of a recording experiment in controls and Advillin^Cre; Gabrb3^f/f mice. Mice received a subcutaneous injection of either saline or isoguvacine (2 mg/kg) during the experiment, and activity of light-touch responsive units in response to a light brush stimulus was assessed over a 90-minute period. FIG. 20I: Average firing frequency of LTMRs over the duration of each recording experiment, following subcutaneous injection of either saline or isoguvacine (2 mg/kg). Repeated measures, two-way ANOVA with post-hoc Dunnett's test, *p<0.05. FIG. 20J: Representative activity raster plots for putative LTMRs in multiple mice over the duration of recordings in controls and Shank3B^+/− mice. Mice received a subcutaneous injection of either saline or isoguvacine (2 mg/kg) during the experiment, and activity of light-touch responsive units was assessed over a 90-minute period. FIG. 20K: Average baseline spike rate of LTMRs in response to brush or air puff stimulus, in control and Shank3B^+/− mice. Student's t-test, *p<0.05. FIG. 20L: Average firing frequency of LTMRs over the duration of each recording experiment, following subcutaneous injection of either saline or isoguvacine (2 mg/kg). Repeated measures, two-way ANOVA with post-hoc Dunnett's test, *p<0.05. […] Two-way ANOVA with post-hoc Sidak's test, *, p<0.05. FIG. 20N: Response to a light air puff stimulus alone in mice following i.p. administration of either saline or 2 mg/kg isoguvacine treatment. Responses are expressed as percent of startle response to a 125 dB noise. Two-way ANOVA with post-hoc Sidak's test, *, p<0.05. FIG. 20O: Magnitude of startle response to a 125 dB noise in mice following i.p. administration of either saline or 2 mg/kg isoguvacine treatment. Responses are expressed as percent of startle response to a 125 dB noise. Two-way ANOVA with post-hoc Sidak's test, *, p<0.05.
To test the hypothesis that isoguvacine exerts its effects by acting directly on primary somatosensory neurons, electrophysiological recordings were performed both in vitro and in vivo. DRG cultures from Mecp2 and Shank3 mutant and control littermates were first produced to assess excitability of these neurons in vitro using whole cell patch-clamp recordings. […] It was next asked whether administration of isoguvacine would reduce mechanosensory neuron sensitivity in vivo by performing multiunit electrode recordings in the L4 DRG of urethane- and isoflurane-anesthetized mice (FIG. 20A). […] Once LTMR units were identified, animals were administered a subcutaneous injection of either saline vehicle or isoguvacine (2 mg/kg) and then sensitivity and firing frequency in response to tactile stimuli were monitored over a 90-minute period for each identified unit. […]

NC1C=C(C(=O)O)CCC1 (stereo not drawn) [Compound 5, 3-aminocyclohex-1-enecarboxylic acid hydrochloride]
GABA transporter inhibition (in words) [1]: potent GABA transporter inhibitor | IC50 [1]: 28.1 µM | Ki [1]: 27.5 µM | inhibition at 30 µM [1]: 52% | inhibition at 0.1 µM ([1]; Conc. 0.1 μM): -10% | inhibition at 0.3 µM ([1]; Conc. 0.3 μM): 3% | inhibition at 1 µM ([1]; Conc. 1 μM): -1% | inhibition at 3 µM ([1]; Conc. 3 μM): 2% | inhibition at 10 µM ([1]; Conc. 10 μM): 19% | inhibition at 100 µM ([1]; Conc. 100 μM): 86% | inhibition at 300 µM ([1]; Conc. 300 μM): 97% | inhibition at 1000 µM ([1]; Conc. 1 mM): 104% | nH (Hill coefficient) ([1]; slope of competitive binding curve): 1.47

O=C(O)C1=CCNCC1 [Isoguvacine, isoguvacine]
proprioceptor sensitivity and firing ([2]; 2 mg/kg subcutaneous): unaffected | response thresholds to light touch stimuli and spiking of glabrous- and hairy-skin innervating Aβ LTMRs ([2]; 2 mg/kg subcutaneous): increased response thresholds to light touch stimuli and reduced spiking | tactile stimulus-evoked LTMR sensitivity ([2]; Advillin^Cre, Gabrb3^f/f mice, 2 mg/kg subcutaneous): no changes in tactile stimulus-evoked LTMR sensitivity | LTMR firing ([2]; Shank3B and control littermates, 2 mg/kg subcutaneous): attenuated firing | tactile stimulus-evoked (brush or air puff) responsivity of LTMRs ([2]; control mice, sixty minutes after 2 mg/kg subcutaneous): significantly decreased
